We go through ten compounds from US9428491B2, “Substituted azoles, antiviral active component, pharmaceutical composition, method for preparation and use thereof” (priority 2010, dated 2016).

The subject of series [1] is subgenomic RNA-replicon HCV (genotype 1b (gT1b), don Con1). In words: Antiviral activity in Huh7 HCV subgenomic replicon cells, immunoenzymatic assay (IEA). The following applies: Huh7 cells with HCV gT1b replicon, 3 days incubation. It is filed as cell-based, hepatitis C virus. As to the method:
Antiviral activity of substituted azoles of the general formula 1 was determined in the human hepatoma cell line Huh7, comprising subgenomic RNA-replicon HCV (genotype 1b (gT1b), don Con1). A version of immumoenzymatic assay (IEA) on viral protein NS5A in 96-well plate was used as an experimental method. Cytotoxicity of the compounds was estimated in parallel regime. Cells Huh7 were seeded in 96-well plate (7.5×10^3 cells to each well in 100 μl of culture medium). Solutions of the tested compounds in DMEM medium {DMEM) 1×; Source: Cellgro; Catalogue: 10-013-CV} were prepared immediately before use. Eleven serial three fold dilutions with variation of concentrations from 20 nM to 0.2 pM were prepared. In 4 hours after seeding, serial dilutions of the compounds were added to the cells (100 μl to each well). Final concentration of tested compounds was varied from 10 nM to 0.1 pM, and DMSO—0.5%. If it was necessary, higher concentrations of the disclosed azoles were investigated. Each dilution of the compound was tested on two identical wells. Then the cells were incubated for three days at 37° C./5% CO2 and fixed by addition of acetone/methanol (1:1) mixture in amount of 250 μl/well. In 1 min the cells were washed 3 times with PBS (Phosphate Buffered Saline) solution. Then the cells were blocked by addition of 10% fetal calf serum in PBS solution in amount of 150 μl/well for 1 h at room temperature. Then, the cells were incubated with mouse monoclonal antibodies to cor-antigen HCV, don C7-50 (Source: Affinity BioReagents; Catalogue: MA1-080) (100 μl/well, working dilution—1:500 in 10% fetal calf serum in PBS solution) for 2 h at 37° C. The cells were washed 6 times with PBS/0.05% Tween 20 solution, then, they were incubated for 1 h with goat anti-mouse immunoglobulin antibodies (conjugated with horseradish peroxidase, 100 μl/well, working dilution—1:2500 in 10% fetal calf serum in PBS solution). The cells were washed 6 times with PBS/0.05% Tween 20 solution, once with PBS solution, after that substrate (1 tablet of o-phenylenediamine (oPD)+12 ml citrate/phosphate buffer+5 μl 30% H2O2) in amount of 100 μl/well was added. The plates were kept for 30 min in the dark at room temperature. The reaction was arrested by the addition of 2N H2SO4 in amount of 100 μl/well, and optical density (wavelength 490 nm) was measured by means of multiscan plate reader Victor3 V 1420 (Perkin Elmer). IC50 values (azole concentration, lowering the level of virus RNA-replicon on 50%) for every tested azole were calculated with the help of XLfit 4 program.
(In general: A replicon is a self-replicating genome or part of one, used to study replication in cells.)

The test system of series [2] is human hepatoma cell line Huh7. The series is described as follows: Cytotoxicity in Huh7 cells (ATPLite). The following applies: 96 h incubation, read-out: CC50, nM (gT1b). It counts as cell-based. As to the method: (§1) Cytotoxicity of the disclosed azoles was tested in experiments in the human hepatoma cell line Huh7. The amount of living cells was determined with the help of ATPLite kit (Perkin Elmer, Boston, USA) in accordance with manufacturer instructions. Cytotoxic action was estimated by seeding the cells into black microplate with transparent bottom (96 wells, 10^4 cells to each well). Three independent repeatings were used for each bis-azole. The tested bis-azoles were added in 18 h, after that the cells were incubated together with the compounds for 96 h. Each well was washed two times with phosphate buffered saline (0.2 ml/well) and then the cells were lysed by addition of cell buffer (50 μl/well) (all mentioned reagents are included in ATPLite kit). The microplate was incubated for 5 min on a rotating platform at 600 r/min, after that 50 μl of substrate solution (a part of ATPLite kit) was added into each well. The microplate was incubated for additional 5 min on a rotating platform at 600 r/min, kept for 10 min in the dark, after that luminescence was measured using TopCount NXT instrument (Packard, Perkin Elmer).
(§2) CC50 Value corresponding to bis-azole concentration at which 50% of cells were ruined was used as quantitative characteristic for cytotoxicity estimation. Calculation of CC50 value: for calculation of inhibition effectiveness (% Inh) the following equation was used: % Inh=[(L^pos−L^ex)/L^pos−L^neg)]*100%, where L^pos—positive control, luminescence in the wells with cells without compounds; L^neg—negative control, luminescence in the wells with medium without cells; L^ex—luminescence in wells with a compound of definite concentration. Then, CC50 values were calculated with the help of XLfit 4 program. Test results for novel azoles of the general formula 1 testify their high (nanomolar) or very high (picomolar) activity.
Background: Cellular ATP, detected with luciferase, serves as a proxy for viable cell number.

Series [3] is described as follows: Cytotoxicity in Huh7 cells (ATPLite). The following applies: human, Huh7 cells (human hepatoma cell line), 96 h incubation, read-out: CC50, nM (gT1b). It is filed as cell-based, human. The protocol:
as §1, §2

Where a name gives a salt, the structure may show the parent alone. Read-outs that look alike come from different tables or passages of the source. Some results are limits rather than exact numbers.

Regarding `COC(=O)N[C@H](C(=O)N1CCC[C@H]1c1ncc(C#CC#Cc2ccc(-c3cnc([C@@H]4CCCN4C(=O)[C@@H](NC(=O)OC)C(C)C)[nH]3)cc2)[nH]1)C(C)C` [1.1•2HCl, [(1S)-1-[[(2S)-2-[5-[4-[4-[2-[(2S)-1-[(2S)-2-[(Methoxycarbonyl)amino]-3-methyl-1-oxobutyl]-2-pyrrolidinyl]-1H-imidazol-5-yl]-1,3-butadiynyl]phenyl]-1H-imidazol-2-yl]-1-pyrrolidinyl]carbonyl]-2-methylpropyl]-carbamic acid methyl ester dihydrochloride], in series [1] (dihydrochloride), the concentration for half-maximal inhibition (IC50) (commonly the concentration at which inhibition is half-maximal) was 0.0034 nM. The CC50 (in general, the concentration giving 50% cytotoxicity) in series [2] (dihydrochloride) is 85100 nM.
With `COC(=O)N[C@H](C(=O)N1CCC[C@H]1c1ncc(-c2ccc(C#CC#Cc3cnc([C@@H]4CCCN4C(=O)[C@@H](NC(=O)OC)C(C)C)[nH]3)cc2)[nH]1)c1ccccc1` [1.3•2HCl, Methyl (5)-[(S)-2-(5-{4-[4-(2-{(S)-1-[(S)-2-(methoxycarbonylamino)-3-methylbutanoyl]pyrrolidin-2-yl}-3H-imidazol-4-yl)buta-1,3-diynyl]phenyl}-1H-imidazol-2-yl)pyrrolidin-1-yl]-2-oxo-1-phenylethylcarbamate dihydrochloride], the half-inhibitory concentration (IC50) in series [1] came to 0.0054 nM. Also, the CC50 in series [2] was more than 10000 nM.
In the case of `COC(=O)N[C@H](C(=O)N1CCC[C@H]1c1ncc(C#CC#Cc2ccc3cc(-c4cnc([C@@H]5CCCN5C(=O)[C@@H](NC(=O)OC)C(C)C)[nH]4)ccc3c2)[nH]1)C(C)C` [1.6•2HCl, Methyl [(S)-1-((S)-2-{5-[2-(4-{2-[(S)-1-((S)-2-methoxycarbonylamino-3-methyl-butyryl)-pyrrolidin-2-yl]-3H-imidazol-4-yl}-buta-1,3-diynyl)-naphthalen-6-yl]-1H-imidazol-2-yl}-pyrrolidine-1-carbonyl)-2-methyl-propyl]-carbamate dihydrochloride], in series [1] (Hepatitis C virus, Huh-7, 72 h), the IC50 worked out at 0.0046 nM. In series [3], the half-maximal cytotoxic concentration (CC50) at 96 h was more than 10000 nM.
In series [1] (Hepatitis C virus, Huh-7, 72 h), `COC(=O)N[C@H](C(=O)N1CCC[C@H]1c1ncc(C#CC#Cc2cccc3c(-c4cnc([C@@H]5CCCN5C(=O)[C@@H](NC(=O)OC)C(C)C)[nH]4)cccc23)[nH]1)C(C)C` [1.7•2HCl, Methyl [(S)-1-((S)-2-{5-[5-(4-{2-[(S)-1-((S)-2-methoxycarbonylamino-3-methyl-butyryl)-pyrrolidin-2-yl]-3H-imidazol-4-yl}-buta-1,3-diynyl)-naphthalen-1-yl]-1H-imidazol-2-yl}-pyrrolidine-1-carbonyl)-2-methyl-propyl]-carbamate dihydrochloride] returned an IC50 of 0.0036 nM. Also, in series [3], the half-maximal cytotoxic concentration (CC50) at 96 h is more than 10000 nM.
The corresponding values for `COC(=O)N[C@H](C(=O)N1CCC[C@H]1c1ncc(C#CC#Cc2ccc(-c3cnc([C@@H]4CCCN4C(=O)[C@@H](NC(=O)OC)C(C)C)[nH]3)c3ccccc23)[nH]1)C(C)C` [1.8•2HCl, Methyl [(S)-1-((S)-2-{5-[4-(4-{2-[(S)-1-((S)-2-methoxycarbonylamino-3-methyl-butyryl)-pyrrolidin-2-yl]-3H-imidazol-4-yl}-buta-1,3-diynyl)-naphthalen-1-yl]-1H-imidazol-2-yl}-pyrrolidine-1-carbonyl)-2-methyl-propyl]-carbamate dihydrochloride] are 0.0048 nM and more than 10000 nM.
As for `COC(=O)N[C@H](C(=O)N1CCC[C@H]1c1nc(C#CC#Cc2ccc(-c3c[nH]c([C@@H]4CCCN4C(=O)[C@@H](NC(=O)OC)C(C)C)n3)s2)c[nH]1)C(C)C` [1.9•2HCl, [(S)-1-((S)-2-{4-[4-(5-{2-[(S)-1-((S)-2-Methoxycarbonylamino-3-methyl-butyryl)-pyrrolidin-2-yl]-1H-imidazol-4-yl}-thiophen-2-yl)-buta-1,3-diynyl]-1H-imidazol-2-yl}-pyrrolidine-1-carbonyl)-2-methyl-propyl]-carbamic acid methyl ester dihydrochloride], in series [1] (Hepatitis C virus, Huh-7, 72 h), 0.0032 nM corresponded to half-maximal inhibition (IC50). Further, in series [3], the CC50 at 96 h was more than 10000 nM.
In series [1] (Hepatitis C virus, Huh-7, 72 h), `COC(=O)N[C@H](C(=O)N1CCC[C@H]1c1ncc(C#CC#Cc2csc3c(-c4cnc([C@@H]5CCCN5C(=O)[C@@H](NC(=O)OC)C(C)C)[nH]4)csc23)[nH]1)C(C)C` [1.10•2HCl, Methyl [(S)-1-((S)-2-{5-[6-(4-{2-[(S)-1-((S)-2-Methoxycarbonylamino-3-methyl-butyryl)-pyrrolidin-2-yl]-3H-imidazol-4-yl}-buta-1,3-diynyl)-thieno[3,2-b]thiophen-3-yl]-1H-imidazol-2-yl}-pyrrolidine-1-carbonyl)-2-methyl-propyl]-carbamate dihydrochloride] had an IC50 of 0.002 nM. The CC50 at 96 h in series [3] was more than 10000 nM.
In turn, `COC(=O)N[C@H](C(=O)N1CCC[C@H]1c1ncc(C#CC#Cc2ccc(-c3cnc([C@@H]4CCCN4C(=O)[C@@H](NC(=O)OC)C(C)C)[nH]3)cc2)[nH]1)C(C)C` [Compound 1.1, [(1S)-1-[[(2S)-2-[5-[4-[4-[2-[(2S)-1-[(2S)-2-[(methoxycarbonyl)amino]-3-methyl-1-oxobutyl]-2-pyrrolidinyl]-1H-imidazol-5-yl]-1,3-butadiynyl]phenyl]-1H-imidazol-2-yl]-1-pyrrolidinyl]carbonyl]-2-methylpropyl]-carbamic acid methyl ester] gave a concentration for half-maximal inhibition (IC50) in series [1] (Hepatitis C virus, Huh-7, 72 h) of 0.0031 nM. The CC50 in series [2] was more than 10000 nM.
In series [1], “Methyl (R)-[(S)-2-(5-{4-[4-(2-{(S)-1-[(S)-2-(methoxycarbonylamino)-3-methylbutanoyl]pyrrolidin-2-yl}-3H-imidazol-4-yl)buta-1,3-diynyl]phenyl}-1H-imidazol-2-yl)pyrrolidin-1-yl]-2-oxo-1-phenylethylcarbamate dihydrochloride [1.4•2HCl]” displayed a half-maximal inhibitory concentration (IC50) of 0.0018 nM. In addition, the 50% cytotoxic concentration (CC50) in series [2] is more than 10000 nM.
Compound “Methyl (S)-[(S)-2-(5-{4-[4-(2-{(S)-1-[(S)-2-(methoxycarbonylamino)-3-methylbutanoyl]pyrrolidin-2-yl}-3H-imidazol-4-yl)buta-1,3-diynyl]phenyl}-1H-imidazol-2-yl)pyrrolidin-1-yl]-2-oxo-1-phenylethylcarbamate dihydrochloride [1.5•2HCl]” had a concentration for half-maximal inhibition (IC50) in series [1] of 0.0082 nM. Besides, in series [2], the CC50 was more than 10000 nM.
